According to patent publication US9522914B2, “Azole derivative” (TAISHO PHARMACEUTICAL CO., LTD, priority 2011, dated 2016):

Biological target: Human V1b receptor (Homo sapiens (Human), UniProt P47901)
Assay: Binding Test for V1b Receptor ([3H]AVP, crude membrane preparation of 293FT cells)
Details: inhibition of [3H]AVP binding (0.4 to 1 nmol/L), room temperature, 60 minutes
Procedure, shortened: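 Crude membranes from 293FT cells transiently expressing human V1b, incubated with [3H]AVP (0.4 to 1 nmol/L) and compound (0.01 nmol/L–1 μmol/L final) in Tris pH 7.4 with MgCl2 and 0.1% BSA, 60 min at room temperature. Bound label collected by filtration. Nonspecific binding defined with unlabeled AVP; IC50 from dose-response curve.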

Human V1b receptor, sequence (P47901 whole entry): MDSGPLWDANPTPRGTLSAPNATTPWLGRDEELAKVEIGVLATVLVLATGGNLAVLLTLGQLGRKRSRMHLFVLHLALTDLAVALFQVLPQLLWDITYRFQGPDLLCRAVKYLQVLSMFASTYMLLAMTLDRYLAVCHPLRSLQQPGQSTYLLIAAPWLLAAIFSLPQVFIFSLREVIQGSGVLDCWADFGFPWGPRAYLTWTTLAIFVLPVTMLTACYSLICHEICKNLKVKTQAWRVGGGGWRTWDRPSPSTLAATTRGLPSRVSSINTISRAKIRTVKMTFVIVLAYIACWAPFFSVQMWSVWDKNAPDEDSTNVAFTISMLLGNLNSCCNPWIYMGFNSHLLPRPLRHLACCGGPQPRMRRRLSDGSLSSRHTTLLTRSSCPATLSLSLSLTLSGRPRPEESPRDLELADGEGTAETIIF

SMILES	IC50 [nM]
COc1cccc(-c2nc(-c3ccc(CCN4C5CCC4COC5)cc3)cn2CC(=O)NC(C)C)c1 [Example A-42, 2-[2-(3-methoxyphenyl)-4-{4-[2-(3-oxa-8-azabicyclo[3.2.1]oct-8-yl)ethyl]phenyl}-1H-imidazol-1-yl]-N-(propan-2-yl)acetamide]	6.3
CC(C)NC(=O)Cn1cc(-c2ccc(CCN3C4CCC3COC4)cc2)nc1-c1cccc(Cl)c1 [Example A-08, 2-[2-(3-chlorophenyl)-4-{4-[2-(3-oxa-8-azabicyclo[3.2.1]oct-8-yl)ethyl]phenyl}-1H-imidazol-1-yl]-N-(propan-2-yl)acetamide]	0.82
COc1cccc(-c2nc(-c3ccc(CCN4C5CCC4COC5)cn3)nn2CC(=O)NC(C)C)c1 [Example B-05, 2-[5-(3-methoxyphenyl)-3-{5-[2-(3-oxa-8-azabicyclo[3.2.1]oct-8-yl)ethyl]pyridin-2-yl}-1H-1,2,4-triazol-1-yl]-N-(propan-2-yl)acetamide]	11
COc1cccc(-c2nc(-c3ccc(CCN4CCC(NC(C)=O)CC4)cc3)nn2CC(=O)NC(C)C)c1 [Example B-35, 2-[3-(4-{2-[4-(acetylamino)piperidin-1-yl]ethyl}phenyl)-5-(3-methoxyphenyl)-1H-1,2,4-triazol-1-yl]-N-(propan-2-yl)acetamide]	100 to 1000
CC(C)NC(=O)Cn1cc(-c2ccc(CCN3CCC(O)CC3)cc2)nc1-c1cccc(Cl)c1 [Example A-04, 2-[2-(3-chlorophenyl)-4-{4-[2-(4-hydroxypiperidin-1-yl)ethyl]phenyl}-1H-imidazol-1-yl]-N-(propan-2-yl)acetamide]	10 to 100
COc1cccc(-c2nc(-c3ccc(CCN4CCOCC4)cc3)c(C)n2CC(=O)NC(C)C)c1 [Example A-36, 2-[2-(3-methoxyphenyl)-5-methyl-4-{4-[2-(morpholin-4-yl)ethyl]phenyl}-1H-imidazol-1-yl]-N-(propan-2-yl)acetamide]	20
CC(C)NC(=O)Cc1nn(-c2ccc(CCN3C4CCC3COC4)cn2)c(=O)n1-c1ccc(F)c(Cl)c1 [Example D-29, 2-[4-(3-chloro-4-fluorophenyl)-1-{5-[2-(3-oxa-8-azabicyclo[3.2.1]oct-8-yl)ethyl]pyridin-2-yl}-5-oxo-4,5-dihydro-1H-1,2,4-triazol-3-yl]-N-(propan-2-yl)acetamide]	10 to 100
CC(C)NC(=O)Cn1nc(-c2ccc(CCN3CCOCC3)cn2)nc1-c1ccc(F)c(Cl)c1 [Example B-12, 2-[5-(3-chloro-4-fluorophenyl)-3-{5-[2-(morpholin-4-yl)ethyl]pyridin-2-yl}-1H-1,2,4-triazol-1-yl]-N-(propan-2-yl)acetamide]	6.3
CC(C)NC(=O)Cn1cc(-c2ccc(OCCN3CCCCC3)cc2)nc1-c1cccc(Cl)c1 [Example A-33, 2-[2-(3-chlorophenyl)-4-{4-[2-(piperidin-1-yl)ethoxy]phenyl}-1H-imidazol-1-yl]-N-(propan-2-yl)acetamide]	100 to 1000
COc1cc(-c2nc(-c3ccc(CCN4CC(C#N)C4)cc3)cn2CC(=O)NC(C)C)ccc1F [Example A-16, 2-[4-{4-[2-(3-cyanoazetidin-1-yl)ethyl]phenyl}-2-(4-fluoro-3-methoxyphenyl)-1H-imidazol-1-yl]-N-(propan-2-yl)acetamide]	100 to 1000
COc1cc(-c2nc(-c3ccc(CCN4CCCC(C#N)C4)cc3)cn2CC(=O)NC(C)C)ccc1F (stereo not shown) [Example A-13, 2-[4-{4-[2-(3-cyanopiperidin-1-yl)ethyl]phenyl}-2-(4-fluoro-3-methoxyphenyl)-1H-imidazol-1-yl]-N-(propan-2-yl)acetamide]	10 to 100
COc1cc(-c2nc(-c3ccc(CCN4CCCOCC4)cc3)cn2CC(=O)NC(C)C)ccc1F [Example A-23, 2-[2-(4-fluoro-3-methoxyphenyl)-4-{4-[2-(1,4-oxazepan-4-yl)ethyl]phenyl}-1H-imidazol-1-yl]-N-(propan-2-yl)acetamide]	11
CC(C)(C)NC(=O)Cn1nc(-c2ccc(CCN3CCOCC3)cn2)nc1-c1cccc(Cl)c1 [Example B-11, N-tert-butyl-2-[5-(3-chlorophenyl)-3-{5-[2-(morpholin-4-yl)ethyl]pyridin-2-yl}-1H-1,2,4-triazol-1-yl]acetamide]	5.1
COc1cc(-c2nc(-c3ccc(CCN4CCC(C)C4)cc3)cn2CC(=O)NC(C)C)ccc1F (stereo not shown) [Example A-21, 2-[2-(4-fluoro-3-methoxyphenyl)-4-{4-[2-(3-methylpyrrolidin-1-yl)ethyl]phenyl}-1H-imidazol-1-yl]-N-(propan-2-yl)acetamide]	3.2
COc1cccc(-c2nc(-c3ccc(CCN4C5CCC4COC5)cn3)nn2CC(=O)NC(C)(C)C)c1 [Example B-07, N-tert-butyl-2-[5-(3-methoxyphenyl)-3-{5-[2-(3-oxa-8-azabicyclo[3.2.1]oct-8-yl)ethyl]pyridin-2-yl}-1H-1,2,4-triazol-1-yl]acetamide]	4.3

The remaining lines, values ahead:

IC50 [nM]	SMILES
12	COc1cc(-n2nc(CC(=O)NC(C)C)n(-c3cccc(Cl)c3)c2=O)ccc1CCN1CCOCC1 [Example D-22, 2-[4-(3-chlorophenyl)-1-{3-methoxy-4-[2-(morpholin-4-yl)ethyl]phenyl}-5-oxo-4,5-dihydro-1H-1,2,4-triazol-3-yl]-N-(propan-2-yl)acetamide]
10 to 100	CC(C)NC(=O)Cc1nn(-c2ccc(CCN3CCCCC3)cc2)c(=O)n1-c1cccc(Cl)c1 [Example D-46, 2-[4-(3-chlorophenyl)-5-oxo-1-{4-[2-(piperidin-1-yl)ethyl]phenyl}-4,5-dihydro-1H-1,2,4-triazol-3-yl]-N-(propan-2-yl)acetamide]
2.8	CC(C)(C)NC(=O)Cc1nn(-c2ccc(CCN3CCOCC3)cc2)c(=O)n1-c1ccc(F)c(Cl)c1 [Example D-30, N-tert-butyl-2-[4-(3-chloro-4-fluorophenyl)-1-{4-[2-(morpholin-4-yl)ethyl]phenyl}-5-oxo-4,5-dihydro-1H-1,2,4-triazol-3-yl]acetamide]
10 to 100	COc1cc(-n2c(CC(=O)NC(C)(C)C)nn(-c3ccc(CCN4CCOCC4)cn3)c2=O)ccc1F [Example D-11, N-tert-butyl-2-[4-(4-fluoro-3-methoxyphenyl)-1-{5-[2-(morpholin-4-yl)ethyl]pyridin-2-yl}-5-oxo-4,5-dihydro-1H-1,2,4-triazol-3-yl]acetamide]
10 to 100	CC(C)NC(=O)Cc1nc(-c2ccc(CCN3CCCCC3)cc2)oc1-c1cccc(Cl)c1 [Example C-08, 2-[5-(3-chlorophenyl)-2-{4-[2-(piperidin-1-yl)ethyl]phenyl}-1,3-oxazol-4-yl]-N-(propan-2-yl)acetamide]
100 to 1000	CC(C)NC(=O)Cc1nn(-c2ccc(CCN3CCOCC3)cn2)c(=O)n1-c1cccc(Cl)c1 [Example D-04, 2-[4-(3-chlorophenyl)-1-{5-[2-(morpholin-4-yl)ethyl]pyridin-2-yl}-5-oxo-4,5-dihydro-1H-1,2,4-triazol-3-yl]-N-(propan-2-yl)acetamide]
4.6	COc1cccc(-n2c(CC(=O)NC(C)(C)C)nn(-c3ccc(CCN4CCOCC4)cc3)c2=O)c1 [Example D-06, N-tert-butyl-2-[4-(3-methoxyphenyl)-1-{4-[2-(morpholin-4-yl)ethyl]phenyl}-5-oxo-4,5-dihydro-1H-1,2,4-triazol-3-yl]acetamide]
